Data published in patent US8110686B2 (Chugai Seiyaki Kabushiki Kaisha, priority 2001, dated 2012).

Key:
[1] = target: T1, malonyl-CoA decarboxylase prepared from rat heart (Rattus norvegicus, UniProt Q920F5); assay: In vitro MCD inhibitory assay (spectrophotometric, 96 well); assay type: biochemical; conditions: read-out: IC50 of the MCD inhibitors
T1 construct: malonyl-CoA decarboxylase prepared from rat heart; from tissue; host or cells: rat heart
T1 sequence (Q920F5 39-492): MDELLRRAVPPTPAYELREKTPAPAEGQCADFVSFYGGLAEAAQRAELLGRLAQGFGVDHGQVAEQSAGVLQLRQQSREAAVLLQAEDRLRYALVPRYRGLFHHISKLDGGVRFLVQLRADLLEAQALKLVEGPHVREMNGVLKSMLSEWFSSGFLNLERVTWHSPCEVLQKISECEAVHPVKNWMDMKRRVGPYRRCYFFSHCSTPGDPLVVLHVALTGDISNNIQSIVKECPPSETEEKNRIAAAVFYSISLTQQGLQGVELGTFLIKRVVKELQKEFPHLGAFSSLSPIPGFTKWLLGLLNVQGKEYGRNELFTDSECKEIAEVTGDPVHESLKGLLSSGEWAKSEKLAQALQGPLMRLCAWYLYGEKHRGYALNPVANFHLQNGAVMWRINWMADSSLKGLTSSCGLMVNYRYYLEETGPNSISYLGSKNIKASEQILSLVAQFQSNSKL
Protocol: The following reagents are added into a 96 well titer plate: Tris-HCl buffer, 20 μL; DTE, 10 μL; l-malate, 20 μL; NAD, 10 μL; NADH, 25 μL; water, 80 μL; malic dehydrogenase, 5 μL. The contents are mixed and incubated for 2 min followed by the addition of 5 μL of citrate synthase. […] The content is incubated and absorbence at […] is measured.
Active compounds are characterized by the concentration of the compound that caused 50% inhibition of MCD activity (IC50).

[2] = system: isolated working hearts from male Sprague-Dawley rats; assay: Glucose oxidation and fatty acid oxidation measurement in the perfused rat heart; conditions: isolated perfused rat heart assay; versus ranolazine or trimetazidine
Protocol: Isolated working hearts from male Sprague-Dawley rats are subjected to a 60-minute aerobic perfusion period with a modified Krebs-Henseleit solution containing 5 mmol/L glucose; 100 μU/mL insulin; 3% BAS; and 1.2 mmol/L palmitate. Working hearts are used in these studies to approximate the metabolic demand of the heart seen in vivo. (Kantor et al., Circulation Research 86:580-588 (2000)). The test compound is added 5 minutes into the perfusion period.
Glucose oxidation rates are determined by the quantitative collection of ^14CO2 produced by hearts perfused with buffer containing […]. Rates of fatty acid oxidation are determined by the quantitative collection of ^14CO2 produced by hearts perfused with buffer containing [^14C]palmitate (McNeill, J. H. in “Measurement of cardiovascular function”, chapter 2, CRC press, New York (1997)).
Active compounds are characterized by an increase in glucose oxidation as compared to control experiment (DMSO). The compounds that caused statistically significant increases in glucose oxidation are considered to be active. The preferred compounds cause statistically significant increases in glucose oxidation at 20 μM. Statistical significance was calculated using the Student's t test for paired or unpaired samples, as appropriate. The results with P<0.05 are considered to be statistically significant.

Row | SMILES | IC50 [1] [nM] | melting point [°C] | effects in metabolism shift compared with known metabolism modulators [2]
1 | CC(C)CN(C(=O)Nc1ccc(C#N)cc1)c1ccc2nc(S)sc2c1 [Table 3; entry 3] | 93 |  | 
2 | CC(C)N(C(=O)Oc1ccc(Cl)cc1)c1ccc2nc(S)sc2c1 [Table 4; entry 4] | 75 |  | 
3 | CC(C)N(C(=O)OCCOCc1ccccc1)c1ccc2nc(S)sc2c1 [Table 4; entry 6] | 1600 |  | 
4 | O=C1CNC(=S)N1c1ccc2nc(S)sc2c1 [Table 5; entry 1, 3-(2-mercapto-1,3-benzothiazol-6-yl)-2-thioxoimidazolidin-4-one] |  | > 266 | 
5 | CCCCOc1ccc(NC(=O)N(CC)c2ccc3nc(S)sc3n2)cc1 [Table 7; entry 1, 3-(4-butoxy-phenyl)-1-ethyl-1-(2-mercapto-thiazolo[5,4-b]pyridin-5-yl)-urea] | 62 | 134.3 to 135 | 
6 | CCN(C(=O)COc1ccccc1)c1ccc2nc(S)sc2n1 [Table 8; entry 1, N-ethyl-N-(2-mercapto-thiazolo[5,4-b]pyridin-5-yl)-2-phenoxy-acetamide] | 98 | 107.5 to 109 | 

The next lines start with results.

Row | IC50 [1] [nM] | melting point [°C] | SMILES | effects in metabolism shift compared with known metabolism modulators [2]
7 | 31 |  | CC(C)CN(C(=O)Nc1ccc(C(F)(F)F)cc1)c1ccc2nc(S)sc2c1 [Table 3; entry 1, N-(2-mercapto-1,3-benzothiazol-6-yl)-N-(2-methylpropyl)-N′-[4-(trifluoromethyl)phenyl]urea] | 
8 | 23 |  | CC(C)N(C(=O)Nc1ccc(C(F)(F)F)cc1)c1ccc2nc(S)sc2c1 [Table 3; entry 16] | more profound effects in metabolism shift than the known metabolism modulators such as ranolazine or trimetazidine
9 | 42 |  | CC(C)N(C(=O)Nc1ccc(CC(=O)O)cc1)c1ccc2nc(S)sc2c1 [Table 3; entry 17] | 
10 | 52 |  | CC(C)N(C(=O)Nc1ccc(C(F)(F)F)cc1)c1ccc2nc(S)sc2n1 [Table 7; entry 8] | 
11 | 25 |  | CC(C)N(C(=O)c1ccc(C(F)(F)F)cc1)c1ccc2nc(S)sc2n1 [Table 8; entry 7] | more profound effects in metabolism shift than the known metabolism modulators such as ranolazine or trimetazidine
